One molecule from patent US8546377B2 (AbbVie Inc., priority 2009, dated 2013) can be followed below.

Bounds are passed on as bounds.

Experiment [1] addresses T1, 5HT2B receptors (Homo sapiens, UniProt P41595).
T1 construct: expressed in transfected cells; host or cells: CHO-K1 cells
As to the kind of experiment: Human 5-HT2B functional assay in CHO-K1 cells (calcium flux, FLIPR). It counts as cell-based. The conditions noted are these: CHO-K1 cells over-expressing 5HT2B, calcium flux; read-out: EC50 (μM), 5-HT2B Agonist Activity. A digest of the protocol:
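Frozen CHO-K1 cells over-expressing receptor, serum-starved overnight, loaded with Ca4 dye plus 2.5 mM probenecid for 60 min at room temperature. FLIPR fluorescence (ex 480/em 530 nm, 25° C) recorded 3 min after compound addition; 6-point 1:10 series from 10 μM, 0.2% DMSO. Response normalized to serotonin, 4-parameter fit gives EC50; Emax as % of serotonin.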
Background: Calcium flux is commonly read through the fluorescence of an indicator in the cells.

Experiment [2] concerns the target T2, 5HT2C receptors (Homo sapiens, UniProt P28335).
T2 sequence (P28335 33-458): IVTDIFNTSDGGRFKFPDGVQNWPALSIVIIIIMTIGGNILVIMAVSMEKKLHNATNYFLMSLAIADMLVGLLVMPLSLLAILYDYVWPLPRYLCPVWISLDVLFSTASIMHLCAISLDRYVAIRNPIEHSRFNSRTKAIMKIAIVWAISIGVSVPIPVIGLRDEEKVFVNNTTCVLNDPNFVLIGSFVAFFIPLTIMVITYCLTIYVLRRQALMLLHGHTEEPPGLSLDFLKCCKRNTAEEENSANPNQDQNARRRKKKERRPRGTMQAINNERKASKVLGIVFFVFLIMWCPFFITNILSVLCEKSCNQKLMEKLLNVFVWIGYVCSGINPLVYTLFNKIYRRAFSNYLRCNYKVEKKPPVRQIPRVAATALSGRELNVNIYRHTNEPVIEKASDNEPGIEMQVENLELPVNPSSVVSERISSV
The experiment can be described thus: Human 5-HT2C functional assay in 1321N1 cells (intracellular calcium, FLIPR). It counts as cell-based. Set-up: expressed in transfected cells; host or cells: 1321N1 cells. The conditions noted are these: 1321N1 cells stably transfected, maximum calcium response; read-out: EC50 (μM), 5-HT2c Agonist Activity. In a few lines:
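Intracellular calcium in 1321N1 cells stably transfected with human 5-HT2C, serum-starved overnight, Fluo4 AM-loaded with 1% probenecid. Compounds at 10^−10 to 10^−5 M final, alone or with 10^−9 M serotonin; peak FLIPR response. EC50 from four-parameter logistic fit; Emax as % of serotonin effect.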

T1 sequence (P41595 whole entry): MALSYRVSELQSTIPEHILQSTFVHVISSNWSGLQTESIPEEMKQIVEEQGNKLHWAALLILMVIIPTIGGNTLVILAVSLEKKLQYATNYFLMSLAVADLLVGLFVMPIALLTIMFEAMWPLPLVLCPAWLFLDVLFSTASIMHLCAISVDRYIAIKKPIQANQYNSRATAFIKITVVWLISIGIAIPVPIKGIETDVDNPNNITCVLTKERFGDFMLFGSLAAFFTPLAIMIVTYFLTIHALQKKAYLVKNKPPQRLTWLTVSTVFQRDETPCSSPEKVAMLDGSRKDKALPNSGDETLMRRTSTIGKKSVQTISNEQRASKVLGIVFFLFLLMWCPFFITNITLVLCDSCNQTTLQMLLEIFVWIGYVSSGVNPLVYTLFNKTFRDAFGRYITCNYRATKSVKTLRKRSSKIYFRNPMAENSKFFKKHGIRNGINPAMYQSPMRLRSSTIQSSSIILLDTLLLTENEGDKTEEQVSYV

For `O=C1NCC2CNCCN2c2ccc(NS(=O)(=O)c3ccccc3)cc21` (centres unmarked) [Example 48, N-(7-oxo-1,2,3,4,4a,5,6,7-octahydropyrazino[1,2-a][1,4]benzodiazepin-9-yl)benzenesulfonamide], the EC50 in experiment [1] and in experiment [2] was more than 10 µM throughout.

For orientation: EC50 means the concentration at which the effect is half-maximal.
